The values below come from patent US11312712B2, “Azabenzimidazoles and their use as AMPA receptor modulators” (Janssen Pharmaceutica NV, priority 2015, dated 2022).

As a reminder, the IC50 is the concentration that gives 50% inhibition.

In this test the target is GluA1o-γ8 (GRIA1o-CACNG8 fusion construct) (Homo sapiens (Human), UniProt P42261+Q8WXS5). The experiment in a line: Calcium flux assay (FLIPR), inhibition of TARP γ8 dependent AMPA receptor activity. As to conditions: GluA1o-γ8 (GRIA1o-CACNG8 fusion) in HEK293 cells, calcium flux after 15 μM glutamate. Format: cell-based. The procedure, abridged: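 Glutamate (15 μM) was added to a stable HEK293 line carrying the GluA1o–γ8 fusion, which had been preincubated with compound and calcium dye in HEPES buffer, pH 7.4. Normalized FLIPR fluorescence (no compound vs 10 μM CP465022) was fitted with four parameters; pIC50 is the midpoint's negative log.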
Chain of GluA1o-γ8 (GRIA1o-CACNG8 fusion construct) (P42261 other isoform, or with tags, fused parts or gaps): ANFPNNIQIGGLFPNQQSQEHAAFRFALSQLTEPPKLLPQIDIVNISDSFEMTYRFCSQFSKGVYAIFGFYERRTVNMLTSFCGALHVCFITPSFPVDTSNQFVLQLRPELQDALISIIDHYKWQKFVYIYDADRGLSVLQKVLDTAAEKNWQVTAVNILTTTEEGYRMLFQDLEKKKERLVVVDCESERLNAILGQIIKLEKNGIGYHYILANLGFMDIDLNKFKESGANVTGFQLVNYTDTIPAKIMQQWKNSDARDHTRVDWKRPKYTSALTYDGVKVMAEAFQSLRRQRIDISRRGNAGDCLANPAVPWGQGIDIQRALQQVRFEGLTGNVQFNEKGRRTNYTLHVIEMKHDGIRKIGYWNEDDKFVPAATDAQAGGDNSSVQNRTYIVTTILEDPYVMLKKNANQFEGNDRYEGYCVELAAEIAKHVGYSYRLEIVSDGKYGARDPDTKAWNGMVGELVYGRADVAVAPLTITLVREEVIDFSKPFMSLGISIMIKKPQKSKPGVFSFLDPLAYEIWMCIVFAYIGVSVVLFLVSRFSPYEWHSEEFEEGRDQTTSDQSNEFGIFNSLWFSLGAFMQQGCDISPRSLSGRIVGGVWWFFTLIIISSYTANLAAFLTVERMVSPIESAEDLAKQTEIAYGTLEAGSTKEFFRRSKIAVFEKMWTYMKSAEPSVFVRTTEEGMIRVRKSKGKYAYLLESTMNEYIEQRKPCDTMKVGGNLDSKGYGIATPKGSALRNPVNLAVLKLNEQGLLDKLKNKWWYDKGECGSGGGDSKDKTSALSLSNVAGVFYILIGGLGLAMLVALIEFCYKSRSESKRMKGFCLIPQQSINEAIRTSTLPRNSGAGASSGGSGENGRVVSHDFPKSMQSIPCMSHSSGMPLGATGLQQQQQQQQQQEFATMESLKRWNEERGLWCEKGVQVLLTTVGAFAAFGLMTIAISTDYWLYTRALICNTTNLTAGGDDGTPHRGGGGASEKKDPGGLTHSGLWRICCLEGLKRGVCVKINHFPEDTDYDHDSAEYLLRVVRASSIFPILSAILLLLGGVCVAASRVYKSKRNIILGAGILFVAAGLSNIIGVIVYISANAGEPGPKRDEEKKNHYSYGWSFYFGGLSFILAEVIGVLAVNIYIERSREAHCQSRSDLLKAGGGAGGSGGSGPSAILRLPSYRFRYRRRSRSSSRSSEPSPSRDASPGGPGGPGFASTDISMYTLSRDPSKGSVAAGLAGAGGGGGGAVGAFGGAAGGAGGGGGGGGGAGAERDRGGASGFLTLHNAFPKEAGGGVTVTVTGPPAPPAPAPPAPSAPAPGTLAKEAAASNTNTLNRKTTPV
Background: A change in cytosolic calcium serves as a functional read-out for many receptors and channels.
On to `FC(F)c1ccc2nc(C3CC3)n(-c3ccc4[nH]ncc4c3)c2n1` [Example 321, 2-Cyclopropyl-5-(difluoromethyl)-3-(1H-indazol-5-yl)imidazo[4,5-b]pyridine], for which the IC50 was 1 nM.

In the case of `Fc1ccc(-c2nc3ccc(C(F)F)nc3n2-c2ccc3[nH]ncc3c2)cc1` [Example 322, 5-(Difluoromethyl)-2-(4-fluorophenyl)-3-(1H-indazol-5-yl)imidazo[4,5-b]pyridine], the IC50 was 0.0631 nM.

`FC(F)c1ccc2nc(-c3ccccc3)n(-c3ccc4[nH]ncc4c3)c2n1` [Example 323, 5-(Difluoromethyl)-3-(1H-indazol-5-yl)-2-phenyl-imidazo[4,5-b]pyridine]: the IC50 was 0.0501 nM.

In the case of `FC(F)c1ccc2nc(C(F)(F)F)n(-c3cc(Cl)c4[nH]ncc4c3)c2n1` [Example 324, 3-(7-Chloro-1H-indazol-5-yl)-5-(difluoromethyl)-2-(trifluoromethyl)imidazo[4,5-b]pyridine], the IC50 is 0.0501 nM.

On to `O=C1Cc2cc(-n3c(C(F)(F)F)nc4ccc(C(F)F)nc43)cc(F)c2N1` [Example 325, 5-[5-(Difluoromethyl)-2-(trifluoromethyl)imidazo[4,5-b]pyridin-3-yl]-7-fluoro-indolin-2-one], for which the IC50 was 0.316 nM.

Regarding `Cc1cc(-n2c(C(F)(F)F)nc3ccc(C(F)F)nc32)cc2cn[nH]c12` [Example 326, 5-(Difluoromethyl)-3-(7-methyl-1H-indazol-5-yl)-2-(trifluoromethyl)imidazo[4,5-b]pyridine], the IC50 is 0.0398 nM.

For `Cc1ccc2nc(-c3ccnc(F)c3)n(-c3cc(Cl)c4[nH]ncc4c3)c2n1` [Example 327, 3-(7-Chloro-1H-indazol-5-yl)-2-(2-fluoro-4-pyridyl)-5-methyl-imidazo[4,5-b]pyridine], the IC50 was 0.251 nM.

`Cc1cc(-n2c(CO)cc3ccc(C(F)(F)F)nc32)cc2c1NC(=O)C2` [Example 329, 5-(2-(Hydroxymethyl)-6-(trifluoromethyl)-1H-pyrrolo[2,3-b]pyridin-1-yl)-7-methylindolin-2-one]: the IC50 was 1 nM.

For `OCc1cc2ccc(C(F)(F)F)nc2n1-c1ccc2[nH]ncc2c1` [Example 330, (1-(1H-Indazol-5-yl)-6-(trifluoromethyl)-1H-pyrrolo[2,3-b]pyridin-2-yl)methanol], the IC50 is 25.1 nM.

For the compound `Cc1cc(-n2c(C)cc3ccc(C(F)(F)F)nc32)cc2c1NC(=O)C2` [Example 331, 7-Methyl-5-(2-methyl-6-(trifluoromethyl)-1H-pyrrolo[2,3-b]pyridin-1-yl)indolin-2-one], the IC50 was 0.01 nM.

`Cc1cc(-n2c(C(C)C)cc3cccnc32)cc2cn[nH]c12` [Example 332, 5-(2-Isopropyl-1H-pyrrolo[2,3-b]pyridin-1-yl)-7-methyl-1H-indazole]: the IC50 was 0.0398 nM.

Consider `Cc1cc2cccnc2n1-c1cc(Cl)c2[nH]ncc2c1` [Example 333, 1-(7-Chloro-1H-indazol-5-yl)-2-methyl-pyrrolo[2,3-b]pyridine], for which the IC50 is 6.31 nM.

Regarding `Cc1cc(-n2c(C(C)C)cc3ccc(C(F)F)nc32)cc2c1NC(=O)C2` [Example 334, 5-[6-(Difluoromethyl)-2-isopropyl-pyrrolo[2,3-b]pyridin-1-yl]-7-methyl-indolin-2-one], the IC50 is 0.0398 nM.

In the case of `CC(C)c1cc2ccc(C(F)(F)F)nc2n1-c1ccc2[nH]ncc2c1` [Example 335, 1-(1H-Indazol-5-yl)-2-isopropyl-6-(trifluoromethyl)pyrrolo[2,3-b]pyridine], the IC50 was 0.0158 nM.

With `Cc1cc(-n2c(C(F)F)cc3ccc(C(F)(F)F)nc32)cc2c1NC(=O)C2` [Example 336, 5-[2-(Difluoromethyl)-6-(trifluoromethyl)pyrrolo[2,3-b]pyridin-1-yl]-7-methyl-indolin-2-one], the 50% inhibitory concentration (IC50) is 0.01 nM.

Regarding `O=c1[nH]c2ccc(-n3c(C(F)F)cc4ccc(C(F)(F)F)nc43)cc2s1` [Example 337, 6-[2-(Difluoromethyl)-6-(trifluoromethyl)pyrrolo[2,3-b]pyridin-1-yl]-3H-1,3-benzothiazol-2-one], the IC50 is 0.126 nM.

Consider `Cc1cc2cccnc2n1-c1cc(Cl)c2c(c1)CC(=O)N2` [Example 338, 7-Chloro-5-(2-methylpyrrolo[2,3-b]pyridin-1-yl)indolin-2-one], for which the IC50 was 7.94 nM.

As for `Cc1cc(-n2cc(O)c3ccc(C(F)(F)F)nc32)cc2cn[nH]c12` [Example 339, 1-(7-Methyl-1H-indazol-5-yl)-6-(trifluoromethyl)pyrrolo[2,3-b]pyridin-3-ol], the IC50 was 79.4 nM.

As to `Cc1cc(-n2cc(C(F)F)c3ccc(C(F)(F)F)nc32)cc2cn[nH]c12` [Example 340, 3-(Difluoromethyl)-1-(7-methyl-1H-indazol-5-yl)-6-(trifluoromethyl)pyrrolo[2,3-b]pyridine], the IC50 was 12.6 nM.

For `Cc1ccc2ccn(-c3cc(C)c4[nH]ncc4c3)c2n1` [Example 341, 6-Methyl-1-(7-methyl-1H-indazol-5-yl)pyrrolo[2,3-b]pyridine], the IC50 is 15.8 nM.

Take `Cc1ccc2cc(C(C)C)n(-c3ccc4c(c3)CC(=O)N4)c2n1` [Example 342, 5-(2-Isopropyl-6-methyl-pyrrolo 2,3-bpyridin-1-yl)indolin-2-one]: the IC50 was 0.251 nM.

On to `COc1ccc2cc(-c3ccc(F)cc3)n(-c3ccc4[nH]ccc4c3)c2n1` [Example 343, 2-(4-Fluorophenyl)-1-(1H-indol-5-yl)-6-methoxy-pyrrolo[2,3-b]pyridine], for which the IC50 is 631 nM.

For the compound `Fc1ccc(-c2cc3cccnc3n2-c2ccc3c(c2)CCN3)cc1` [Example 344, 2-(4-Fluorophenyl)-1-indolin-5-yl-pyrrolo[2,3-b]pyridine], the concentration for half-maximal inhibition (IC50) is 501 nM.

For the compound `Fc1ccc(-c2cc3cccnc3n2-c2ccc3[nH]ccc3c2)cc1` [Example 345, 2-(4-Fluorophenyl)-1-(1H-indol-5-yl)pyrrolo[2,3-b]pyridine], the IC50 is 79.4 nM.

Take `O=C1Cc2cc(-n3c(-c4ccc(F)cc4)c(Br)c4cccnc43)ccc2N1` [Example 346, 5-[3-Bromo-2-(4-fluorophenyl)pyrrolo[2,3-b]pyridin-1-yl]indolin-2-one]: the IC50 was 3.98 nM.

For `O=C1Cc2cc(-n3c(-c4ccc(F)cc4)cc4cccnc43)ccc2N1` [Example 347, 5-[2-(4-Fluorophenyl)pyrrolo[2,3-b]pyridin-1-yl]indolin-2-one], the IC50 was 2.51 nM.

For `Fc1ccc(-c2cc3ccc(F)nc3n2-c2ccc3[nH]ccc3c2)cc1` [Example 348, 6-Fluoro-2-(4-fluorophenyl)-1-(1H-indol-5-yl)pyrrolo[2,3-b]pyridine], the IC50 is 100 nM.

In the case of `O=C1Cc2cc(-n3c(-c4ccc(F)cc4)c(Br)c4ccc(F)nc43)ccc2N1` [Example 349, 5-[3-Bromo-6-fluoro-2-(4-fluorophenyl)pyrrolo[2,3-b]pyridin-1-yl]indolin-2-one], the IC50 was 3.98 nM.

As for `O=C1Cc2cc(-n3c(-c4ccc(F)cc4)cc4ccc(F)nc43)ccc2N1` [Example 350, 5-[6-Fluoro-2-(4-fluorophenyl)pyrrolo[2,3-b]pyridin-1-yl]indolin-2-one], the IC50 is 0.794 nM.

Consider `Cc1cc2ccc(C(F)(F)F)nc2n1-c1ccc2[nH]ccc2c1` [Example 351, 1-(1H-Indol-5-yl)-2-methyl-6-(trifluoromethyl)pyrrolo[2,3-b]pyridine], for which the IC50 is 25.1 nM.

Consider `Cc1cc2ccc(C(F)(F)F)nc2n1-c1ccc2c(c1)CC(=O)N2` [Example 352, 5-[2-Methyl-6-(trifluoromethyl)pyrrolo[2,3-b]pyridin-1-yl]indolin-2-one], for which the IC50 was 0.501 nM.

For the compound `Cc1cc(-n2c(C)cc3cccnc32)cc2c1NC(=O)C2` [Example 353, 7-Methyl-5-(2-methyl-1H-pyrrolo[2,3-b]pyridin-1-yl)indolin-2-one], the IC50 was 12.6 nM.

For `Cc1cc2ccc(C(F)(F)F)nc2n1-c1ccc2[nH]ncc2c1` [Example 354, 5-(2-Methyl-6-(trifluoromethyl)-1H-pyrrolo[2,3-b]pyridin-1-yl)-1H-indazole], the IC50 was 0.501 nM.

With `Cc1cc2ccc(C(F)(F)F)nc2n1-c1ccc2[nH]c(=O)sc2c1` [Example 355, 6-(2-Methyl-6-(trifluoromethyl)-1H-pyrrolo[2,3-b]pyridin-1-yl)benzo[d]thiazol-2(3H)-one], the IC50 was 0.02 nM.

Regarding `CC(C)c1cc2cccnc2n1-c1cc(Cl)c2[nH]ncc2c1` [Example 356, 1-(7-Chloro-1H-indazol-5-yl)-2-isopropyl-pyrrolo[2,3-b]pyridine], the IC50 was 0.02 nM.

With `CC(C)c1cc2cccnc2n1-c1cc(Cl)c2c(c1)CC(=O)N2` [Example 357, 7-Chloro-5-(2-isopropylpyrrolo[2,3-b]pyridin-1-yl)indolin-2-one], the IC50 was 0.0316 nM.

Turning to `Cc1cc(-n2c(C(C)C)cc3cccnc32)cc2c1NC(=O)C2` [Example 358, 5-(2-Isopropylpyrrolo[2,3-b]pyridin-1-yl)-7-methyl-indolin-2-one], the concentration for half-maximal inhibition (IC50) was 0.2 nM.

Consider `Cc1cc(-n2c(C3CC3)cc3cccnc32)cc2c1NC(=O)C2` [Example 359, 5-(2-Cyclopropylpyrrolo[2,3-b]pyridin-1-yl)-7-methyl-indolin-2-one], for which the IC50 is 10 nM.

As to `Cc1ccc2cc(C(C)C)n(-c3cc(C)c4c(c3)CC(=O)N4)c2n1` [Example 360, 5-(2-Isopropyl-6-methyl-pyrrolo[2,3-b]pyridin-1-yl)-7-methyl-indolin-2-one], the IC50 is 0.0631 nM.

With `CC(C)c1cc2cccnc2n1-c1cc(F)c2c(c1)CC(=O)N2` [Example 361, 7-Fluoro-5-(2-isopropylpyrrolo[2,3-b]pyridin-1-yl)indolin-2-one], the IC50 is 7.94 nM.

In the case of `Cc1ccc2cc(C(C)C)n(-c3cc(F)c4c(c3)CC(=O)N4)c2n1` [Example 362, 7-Fluoro-5-(2-isopropyl-6-methyl-pyrrolo[2,3-b]pyridin-1-yl)indolin-2-one], the IC50 is 0.0398 nM.
